Results reported in patent US5840867A, “Aptamer analogs specific for biomolecules” (Gilead Sciences, Inc., priority 1994, dated 1998).

Assays:
thrombin [1] = assay: Clotting time for thrombin-catalyzed conversion of fibrinogen to fibrin; format: biochemical; details: 7-mer at 20 μM; thrombin 10 nM; thrombin alone 24 sec
Protocol: Clotting time for the thrombin-catalyzed conversion of fibrinogen (2.0 mg/ml in selection buffer) to fibrin at 37° C. was measured using a precision coagulation timer apparatus (Becton-Dickinson, Cat. Nos. 64015, 64019, 64020). Thrombin (10 nM) incubated with fibrinogen alone clotted in 40 sec, thrombin incubated with fibrinogen and P1 nuclease (Boehringer-Mannheim, Indianapolis, Ind.) clotted in 39 sec, thrombin incubated with fibrinogen and aptamer clone #5 (200 nM) clotted in 115 sec, and thrombin incubated with fibrinogen, clone #5 (200 nM) and P1 nuclease clotted in 40 sec. All incubations were carried out at 37° C. using reagents prewarmed to 37° C. Aptamer DNA or, when present, P1 nuclease, was added to the fibrinogen solution prior to addition of thrombin.
Inhibition of thrombin activity was studied using a consensus-related sequence 7-mer, 5' GGTTGGG 3' (SEQ ID NO:15), or a control 7-mer with the same base composition but different sequence (5' GGGGGTT 3' ) (SEQ ID NO:16). Clotting times were measured using the timer apparatus as above. The thrombin clotting time in this experiment was 24 sec using thrombin alone (10 nM), 26 sec with thrombin and the control sequence at 20 μM and 38 sec with thrombin plus the consensus sequence at 20 μM, indicating specificity for thrombin inhibition at the level of the 7-mer.

Half-life in rats = format: in vivo, rat; details: injected through catheter
Protocol: (§1) A 15-mer single-stranded deoxynucleotide, 5' GGTTGGTGTGGTTGG 3' (SEQ ID NO:19), identified as a consensus sequence from 30 thrombin aptamer clones as described in Example 4 above was used. Young adult rats of mixed gender and strain were used. The animals were anesthetized and a diester of the 15-mer was injected through a catheter in 200 μl volumes (in 20 mM phosphate buffer, pH 7.4, 0.15M NaCl) at two concentrations, so that the final concentration of 15-mer in the blood was about 0.5 and 5.0 μM respectively, although the exact concentration depends on the volume of distribution which is unknown for this oligonucleotide. These values are 10 to 100 times greater than the human in vitro Kd value. No heparin was used for catheterization.
(§2) At 0, 5, 20 and 60 minutes, blood was withdrawn from the animals (approx. 500 μl aliquots) and transferred into tubes containing 0.1 volume citrate buffer and centrifuged. Rat plasma was removed and tested in a thrombin clotting-time assay. Six animals were used at each concentration,and three animals were injected with the control carrier solution containing no 15-mer.
(§3) Thus, the 15-mer in blood withdrawn from rats 5 minutes post-injection was able to inhibit exogenously added human thrombin. […] The half-life of the 15-mer in rats appears to be about 5 minutes or less.

thrombin [2] = assay: Extent of thrombin inhibition with varying DNA concentration; format: biochemical
Source text: Independent verification of the Ki for the nonmodified 15-mer was made by determining the extent of thrombin inhibition with varying DNA concentration.

thrombin [3] = assay: Steady-state inhibition kinetics by clotting time assay (Ki); format: biochemical; details: constant thrombin, varying fibrinogen concentration
Protocol: The inhibition constants (Ki s) and mode of inhibition of the aptamer analogs were determined through steady-state inhibition kinetics using a clotting time assay with constant thrombin concentration and varying the fibrinogen concentration in the presence of aptamer, control DNA, or no DNA. […] The data is consistent with a non-competitive mode of inhibition.

rat blood coagulation = assay: APTT test after injection in rats; format: in vivo; details: 5 minute time point
Protocol: as §3

human thrombin = assay: Thrombin clotting-time assay on rat plasma after injection; format: in vivo; details: rats, injected through catheter
Protocol: as §1, §2

Substance	Ki (thrombin [3]) [nM]	further results
5' GGGGGTT 3' (chemistry not given here) [reference compound]		Clotting time (thrombin [1]): 26 s
5' GGTTGGG 3' (chemistry not given here)		Clotting time (thrombin [1]): 38 s
5' GGTTGGTGTGGTTGG 3'	20	half-life (Half-life in rats): ≤ 5 min; concentration giving 50% inhibition of thrombin activity (thrombin [2]): approximately the same concentration as the derived Ki; APTT test (rat blood coagulation): inhibited rat blood coagulation; clotting time of rat plasma (human thrombin; about 0.5 and 5.0 μM in blood, 5 minute time point): prolonged clotting time; activity in clotting-time assay of rat plasma (human thrombin; 20 minutes): Little or no activity
G*G*T*T*G*G*T*G*T*G*G*T*T*G*G	280	
GG(dU)TGGTGTGG(dU)TGG (DNA GGNTGGTGTGGNTGG) [15-mer thrombin aptamer analog with uracil (dU) in place of thymine]	80	
GGTTGG(dU)G(dU)GGTTGG (DNA GGTTGGNGNGGTTGG; dU in place of thymine) [15-mer thrombin aptamer analog with uracil (dU) in place of thymine]	15	
GGTTGGTGTGGTT*G*G	40	
GGTTGGTGTGGTTGG#G#T (DNA GGTTGGTGTGGTTGGGT; MEA linkages, chemistry not fully specified) [closely related 17-mer thrombin aptamer analog; # indicates a MEA linkage]	35	
GGTTGGTGTGGTU'GG (DNA GGTTGGTGTGGTNGG; 5-pentynyluracil, further chemistry not given here) [15-mer thrombin aptamer analog; U' indicates 5-pentynyluracil]	20	
